Test systems include PC-3 prostate; DU-145 prostate; LOX IMVI melanoma; 786-0 renal; SK-MEL-28 melanoma; OVCAR-3 ovarian; SF-295 CNS; SN12C renal; A498 renal; SK-MEL-5 melanoma.
Common to all, as to assay: NCI tumour cell line growth inhibition, 48 h

For 13 compounds, GI50 and TGI results are on record in PubChem BioAssay (NCI).

Several values for one entry are separate records, joined by “and”; a condition that tells them apart may be missing. Equal values may be shown once.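 Cells were grown in 96-well plates and exposed to each compound for 48 hours at five concentrations; endpoints were interpolated linearly between bracketing concentrations, or set to the highest concentration if not reached. At the GI50, growth is halved. The concentration for full growth arrest is given as TGI.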

`CN(C)CCN1C(=O)c2c(c3c4ccccc4n4c3c3c2c2ccccc2n3C2CC(O)C(O)C4(C)O2)C1=O` (configuration not stated): the GI50 in the experiment with PC-3 prostate is 2.05 µM; with DU-145 prostate, 1.12 µM; in the experiment on LOX IMVI melanoma it was 0.448 µM; in the experiment on 786-0 renal, 1.93 µM; in the experiment with SK-MEL-28 melanoma, 3.02 µM; in the experiment with OVCAR-3 ovarian it was 2.27 µM. The GI50 is 1.45 µM in the experiment on SF-295 CNS, 0.914 µM in the experiment with SN12C renal, 1.24 µM with A498 renal and 1.58 µM in the experiment with SK-MEL-5 melanoma. Besides, the TGI in the experiment with PC-3 prostate amounted to 9.48 µM; in the experiment on DU-145 prostate it was 9.42 µM; with LOX IMVI melanoma, 1.89 µM; with 786-0 renal, 8.37 µM; in the experiment with SK-MEL-28 melanoma, 10.4 µM; in the experiment on OVCAR-3 ovarian, 11.1 µM. Moreover, the TGI was 16.6 µM in the experiment with SF-295 CNS, 7.87 µM in the experiment on SN12C renal, 7.88 µM in the experiment with A498 renal and 7.14 µM in the experiment on SK-MEL-5 melanoma.
On to `C[C@@H]1[C@H](C)N1CC(O)Cn1ccnc1[N+](=O)[O-]` (some centres not stated), for which the TGI in the experiment with PC-3 prostate, in the experiment with DU-145 prostate, in the experiment with LOX IMVI melanoma, with 786-0 renal, in the experiment on SK-MEL-28 melanoma and in the experiment on OVCAR-3 ovarian was > 100 µM throughout. For the same compound, the TGI in the experiment with SF-295 CNS, with SN12C renal, in the experiment on A498 renal and in the experiment on SK-MEL-5 melanoma was > 100 µM each time.
As to `CC1=C(C(=O)Nc2ccc3n[nH]c(C)c3c2)C(c2ccc(C(F)(F)F)cc2)CC(=O)N1` (configuration not stated), the GI50 with PC-3 prostate is > 25 µM; in the experiment with DU-145 prostate, > 25 µM; in the experiment on LOX IMVI melanoma, 12.8 µM; in the experiment with 786-0 renal, > 25 µM; with SK-MEL-28 melanoma, > 25 µM; with OVCAR-3 ovarian, > 25 µM. In addition, the GI50 in the experiment on SF-295 CNS was 16.4 µM; in the experiment with SN12C renal, > 25 µM; in the experiment on A498 renal, 6.3 µM; with SK-MEL-5 melanoma, > 17.7 µM. In addition, the TGI in the experiment on PC-3 prostate, in the experiment with DU-145 prostate, in the experiment with LOX IMVI melanoma, in the experiment on 786-0 renal, in the experiment with SK-MEL-28 melanoma and in the experiment on OVCAR-3 ovarian was > 25 µM each time. The TGI with SF-295 CNS, with SN12C renal, with A498 renal and with SK-MEL-5 melanoma was > 25 µM each time.
Regarding `C[C@H]1CC[C@@]2(NC1)O[C@H]1C[C@H]3[C@@H]4CC[C@H]5C[C@@H](O)CC[C@]5(C)[C@H]4CC[C@]3(C)[C@H]1[C@@H]2C`, the GI50 was 12.5 µM in the experiment on PC-3 prostate; 30.3 µM in the experiment with DU-145 prostate; 14.4 µM in the experiment on LOX IMVI melanoma; 9.23 µM with 786-0 renal; 17.9 µM in the experiment on SK-MEL-28 melanoma; 9.61 µM with OVCAR-3 ovarian. The GI50 with SF-295 CNS is 14.8 µM; in the experiment on SN12C renal it was 11.2 µM; with A498 renal, 13.8 µM; in the experiment on SK-MEL-5 melanoma, 11.7 µM. Besides, the TGI with PC-3 prostate is 42 µM and > 100 µM; in the experiment with DU-145 prostate, 50 µM and > 100 µM; in the experiment with LOX IMVI melanoma, 41.8 µM and > 100 µM; in the experiment with 786-0 renal, 18.7 µM and > 100 µM; in the experiment on SK-MEL-28 melanoma it was 50 µM; in the experiment with OVCAR-3 ovarian, 22.2 µM and > 100 µM. The TGI in the experiment on SF-295 CNS was 42.9 µM and > 100 µM; in the experiment with SN12C renal it was 29.9 µM and > 100 µM; in the experiment on A498 renal, 35.2 µM and > 100 µM; in the experiment on SK-MEL-5 melanoma, 23.7 µM and > 100 µM.
As to `COc1cc(OC)c2nc(C)c3c(c2c1)SCC3`, the TGI is 53.1 µM in the experiment on PC-3 prostate; > 100 µM in the experiment on DU-145 prostate; > 100 µM with LOX IMVI melanoma; 35.4 µM with 786-0 renal; > 100 µM in the experiment on SK-MEL-28 melanoma; 36.4 µM in the experiment with OVCAR-3 ovarian. For the same compound, the TGI in the experiment on SF-295 CNS was determined as 65.9 µM; in the experiment on SN12C renal, 57.9 µM; in the experiment with A498 renal it was 36.2 µM; in the experiment on SK-MEL-5 melanoma, 49.8 µM.
Take `Cc1ccc(S(=O)(=O)c2c(COC(=O)c3cccc(C)c3)c(-c3ccccc3)nn2C)cc1`: the GI50 in the experiment with PC-3 prostate, with DU-145 prostate, in the experiment on LOX IMVI melanoma, with 786-0 renal, in the experiment on SK-MEL-28 melanoma and in the experiment with OVCAR-3 ovarian was > 100 µM in each case. For the same compound, the GI50 is > 100 µM in the experiment with SF-295 CNS, > 100 µM in the experiment on SN12C renal, 29.5 µM in the experiment on A498 renal and > 100 µM in the experiment with SK-MEL-5 melanoma. The TGI in the experiment with PC-3 prostate, with DU-145 prostate, in the experiment with LOX IMVI melanoma, with 786-0 renal, in the experiment with SK-MEL-28 melanoma and with OVCAR-3 ovarian was > 100 µM throughout. Besides, the TGI in the experiment on SF-295 CNS, in the experiment with SN12C renal, with A498 renal and with SK-MEL-5 melanoma was > 100 µM in each case.
As for `Cc1cc(NC(=O)NC(=O)c2ccccc2NC(=O)C(C)N)ccc1Oc1ncc(Br)cn1` (configuration not stated), the TGI in the experiment with PC-3 prostate came out at 15.2 µM; with DU-145 prostate it was 19.2 µM; in the experiment with LOX IMVI melanoma, 33.5 µM; in the experiment with 786-0 renal it was 9.56 µM; in the experiment with SK-MEL-28 melanoma, 37.4 µM; in the experiment on OVCAR-3 ovarian, 0.111 µM. The TGI is 4.91 µM in the experiment on SF-295 CNS, 19.5 µM in the experiment on SN12C renal, 0.529 µM with A498 renal and 9.49 µM in the experiment on SK-MEL-5 melanoma.
In the case of `Cc1[nH]c2ccccc2c1CCCO`, the GI50 in the experiment on PC-3 prostate, in the experiment on DU-145 prostate, with LOX IMVI melanoma, with 786-0 renal, in the experiment with SK-MEL-28 melanoma and in the experiment on OVCAR-3 ovarian was > 100 µM each time. Further, the GI50 with SF-295 CNS, in the experiment on SN12C renal, in the experiment with A498 renal and in the experiment on SK-MEL-5 melanoma was > 100 µM in each case. Also, the TGI in the experiment on PC-3 prostate, in the experiment with DU-145 prostate, in the experiment with LOX IMVI melanoma, in the experiment on 786-0 renal, in the experiment with SK-MEL-28 melanoma and with OVCAR-3 ovarian was > 100 µM throughout. For the same compound, the TGI in the experiment with SF-295 CNS, in the experiment on SN12C renal, with A498 renal and in the experiment on SK-MEL-5 melanoma was > 100 µM throughout.
`C=C(C(N)=O)c1ccc([N+](=O)[O-])o1`: the TGI with PC-3 prostate amounted to 76 µM; with DU-145 prostate it was 23.4 µM; in the experiment on LOX IMVI melanoma, 23.1 µM; with 786-0 renal, 24.1 µM; in the experiment on SK-MEL-28 melanoma, 12.7 µM; in the experiment on OVCAR-3 ovarian it was 22.4 µM. Moreover, the TGI is > 100 µM with SF-295 CNS, 22.4 µM in the experiment on SN12C renal, 25.7 µM in the experiment with A498 renal and 16.4 µM in the experiment on SK-MEL-5 melanoma.
As for `COc1cc2c(cc1OC)[C@H](C)N1CCc3cc(OC)c(OC)cc3[C@@H]1C2`, the TGI in the experiment with PC-3 prostate, with DU-145 prostate, in the experiment on LOX IMVI melanoma, with 786-0 renal, in the experiment on SK-MEL-28 melanoma and in the experiment with OVCAR-3 ovarian was > 100 µM each time. Besides, the TGI in the experiment with SF-295 CNS, in the experiment on SN12C renal, in the experiment with A498 renal and in the experiment on SK-MEL-5 melanoma was > 100 µM in each case.
As to `CN1CCN(C(=O)C(C)(C)c2ccc(C(=O)Nc3cn4cc(-c5ccncc5)ccc4n3)cc2)CC1`, the GI50 in the experiment with PC-3 prostate was 0.382 µM; in the experiment on DU-145 prostate, 0.319 µM; in the experiment with LOX IMVI melanoma, 0.215 µM; in the experiment with 786-0 renal it was 0.539 µM; with SK-MEL-28 melanoma, 0.343 µM; with OVCAR-3 ovarian, 0.126 µM. In addition, the GI50 in the experiment on SF-295 CNS is 0.482 µM; with SN12C renal it was 0.267 µM; with A498 renal it was 0.157 µM; in the experiment with SK-MEL-5 melanoma it was 0.188 µM. In addition, the TGI is > 70.2 µM in the experiment with PC-3 prostate; 35.2 µM with DU-145 prostate; 0.934 µM with LOX IMVI melanoma; > 100 µM with 786-0 renal; 6.47 µM in the experiment with SK-MEL-28 melanoma; 0.431 µM in the experiment on OVCAR-3 ovarian. In addition, the TGI in the experiment with SF-295 CNS was 30.8 µM; in the experiment with SN12C renal it was > 100 µM; in the experiment on A498 renal, 0.418 µM; in the experiment on SK-MEL-5 melanoma it was 0.382 µM.
As for `COC(=O)C1(Cc2ccc3c(c2)CCC3)Cc2ccccc2C1O` (configuration not stated), the TGI in the experiment with PC-3 prostate was 29.2 µM; in the experiment with DU-145 prostate it was > 100 µM; in the experiment on LOX IMVI melanoma it was 34 µM; with 786-0 renal it was 32.4 µM; with SK-MEL-28 melanoma it was 33 µM; in the experiment on OVCAR-3 ovarian it was 36.8 µM. For the same compound, the TGI in the experiment on SF-295 CNS was 35.2 µM; in the experiment on SN12C renal, 29.2 µM; with A498 renal it was 33.7 µM; with SK-MEL-5 melanoma it was 29.8 µM.
Turning to `O=C1c2cc3c(cc2[C@@H]2[C@H]1c1ccc([N+](=O)[O-])cc1C(=O)N2CCCBr)OCO3`, the GI50 is < 0.01 µM in the experiment with PC-3 prostate; < 0.01 µM in the experiment on DU-145 prostate; < 0.01 µM with LOX IMVI melanoma; < 0.01 µM with 786-0 renal; < 0.01 µM with SK-MEL-28 melanoma; < 0.037 µM in the experiment on OVCAR-3 ovarian. Moreover, the GI50 in the experiment on SF-295 CNS, in the experiment with SN12C renal, in the experiment on A498 renal and in the experiment with SK-MEL-5 melanoma was < 0.01 µM throughout. Besides, the TGI is 0.184 µM in the experiment with PC-3 prostate; < 0.0117 µM with LOX IMVI melanoma; < 0.01 µM in the experiment on 786-0 renal; > 100 µM in the experiment with SK-MEL-28 melanoma; < 0.01 µM in the experiment on SN12C renal; < 0.01 µM in the experiment on A498 renal. Further, the TGI in the experiment with SK-MEL-5 melanoma came out at 0.0101 µM.
